Data taken from PubChem BioAssay (NCI).
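Protocol summary: plate cells (96-well), add compound at 5 concentrations, incubate 48 h, interpolate endpoints linearly. GI50 marks 50% less growth. TGI marks complete inhibition of growth.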

Experiments:
Experiment in all cases: NCI tumour cell line growth inhibition, 48 h
PC-3 prostate = tested on: PC-3 prostate
CAKI-1 renal = tested on: CAKI-1 renal
SF-268 CNS = tested on: SF-268 CNS
NCI/ADR-RES ovarian = tested on: NCI/ADR-RES ovarian
HCT-116 colon = tested on: HCT-116 colon
HCT-15 colon = tested on: HCT-15 colon
RPMI-8226 leukemia = tested on: RPMI-8226 leukemia
MOLT-4 leukemia = tested on: MOLT-4 leukemia
IGROV1 ovarian = tested on: IGROV1 ovarian
SW-620 colon = tested on: SW-620 colon

| Structure (SMILES) | GI50 (PC-3 prostate) [µM] | TGI (PC-3 prostate) [µM] | GI50 (CAKI-1 renal) [µM] | TGI (CAKI-1 renal) [µM] | GI50 (SF-268 CNS) [µM] | TGI (SF-268 CNS) [µM] | GI50 (NCI/ADR-RES ovarian) [µM] | TGI (NCI/ADR-RES ovarian) [µM] | GI50 (HCT-116 colon) [µM] | TGI (HCT-116 colon) [µM] | GI50 (HCT-15 colon) [µM] | TGI (HCT-15 colon) [µM] | GI50 (RPMI-8226 leukemia) [µM] | TGI (RPMI-8226 leukemia) [µM] | GI50 (MOLT-4 leukemia) [µM] | TGI (MOLT-4 leukemia) [µM] | GI50 (IGROV1 ovarian) [µM] | TGI (IGROV1 ovarian) [µM] | GI50 (SW-620 colon) [µM] | TGI (SW-620 colon) [µM] |
| --- | --- | --- | --- | --- | --- | --- | --- | --- | --- | --- | --- | --- | --- | --- | --- | --- | --- | --- | --- | --- |
| Cc1ccc(Nc2nc(N)c(C(=O)c3ccc(C#N)cc3)s2)cc1 | 0.347 | > 100 | 0.402 | 25 | 2.59 | > 95.9 | 0.196 | 36.3 | 0.241 | 6.74 | 0.202 | > 100 | 0.56 | > 100 | 0.468 | > 100 | 1.2 | > 100 | 0.336 | > 100 |
| O=C(N/N=C\c1cc(Br)ccc1O)c1ccncc1 | 1.87 | > 100 | 1.04 | > 100 | 1.4 | > 100 | 1.42 | 34.5 | 1.8 | > 100 | 0.563 | > 100 | 3.08 | > 100 | 0.551 | 23.5 | 3.51 | > 100 | 2.66 | > 100 |
| COc1cc(NC(C)CCCN)c2nccc(C)c2c1OC (stereo not given) | 10.5 | 34 | 19 | 40.8 | 17.9 | 48.3 | 20.5 | 74.6 | 5 | 18.7 | 11.5 | 24.5 | 5.67 | 23.2 | 15.3 | 42.1 | 4.01 | 22.7 | 3.54 | 15 |
| CCN(CC)CCNCC(=O)Oc1ccc(/C=C/C(=O)CC(=O)/C=C/c2ccc(OC(=O)CNCCN(CC)CC)c(OC)c2)cc1OC | 4.69 | > 100 | 3.2 | 15.8 | 3.68 | > 100 | 5.73 | > 100 | 2.81 | 12.3 | 3.68 | 15.3 | 1.91 | 6.01 | 5.14 | > 100 | 4.04 | 8.94 | 3.02 | 9.93 |
| COc1cc(/C=C2\C(=O)Nc3ccc(F)cc32)cc(OC)c1OC | 40.4 | > 100 | 15.8 | > 100 | 28.3 | > 100 | 18.9 | > 100 | 21.2 | > 100 | 14.9 | > 100 | 56.8 | > 100 | 9.26 | > 100 | 8.44 | > 100 | 63.7 | > 100 |
| CC(=O)Oc1ccc(Nc2c3ccccc3nc3ccccc23)cc1 | 2.12 | 13.3 | 1.21 | 12.7 | 1.86 | 12.4 | 2.25 | 12.1 | 0.613 | 4.11 | 1.13 | 3.4 | 2.25 | 23.7 | 0.321 | > 100 | 1.15 | 6.98 | 0.747 | 2.58 |
| COC(=O)[C@@H](NC(=O)[C@@H](OC)[C@@H]1Cc2cc3cc(OC4CC(OC5CC(O)C(O)C(C)O5)C(O)C(C)O4)c(C)c(O)c3c(O)c2C(=O)[C@H]1OC1CC(OC2CC(OC3CC(C)(O)C(O)C(C)O3)C(O)C(C)O2)C(O)C(C)O1)C(C)C (stereo not given in full) | 0.149 | > 32.5 | 0.107 | 1.67 | 0.172 | > 32.5 | 23.7 | > 32.5 | 0.0934 | > 32.5 | 0.181 | > 32.5 | 0.0918 | 0.619 | 0.136 | 5.24 | 0.101 | > 32.5 | 0.121 | > 32.5 |
| COc1ccc(-c2cc(-c3cccn3C)c(C#N)c(N)n2)cc1OC | 99 | > 100 | > 100 | > 100 | 82.4 | > 100 | > 100 | > 100 | 91.1 | > 100 | > 100 | > 100 | 38.5 | > 100 | 46.8 | > 100 | 96 | > 100 | > 100 | > 100 |
| N#CC1(C2SCCS2=O)C2=C(C(=O)c3ccccc3C2=O)N2CCCC21 (stereo not given) | – | 14.7 | – | 15 | – | 11.2 | – | 10.2 | – | 5.56 | – | 6.63 | – | 9.91 | – | 19.7 | – | 5.76 | – | 6.41 |
| CCN(CC)CCOc1ccc(/C(=C(\C)c2ccc(F)c(OC)c2)c2ccc(Cl)cc2)cc1 | 2.11 | 4.62 | 2.42 | 4.61 | 2.69 | 5.82 | 2.36 | 4.69 | 2.24 | 4.86 | 1.08 | 3.39 | 2.6 | 6.3 | 2.49 | 6.86 | 2.45 | 5.4 | 2.12 | 4.28 |
| Nc1nc(Cl)cc(NCCO)n1 | – | > 100 | – | > 100 | – | > 100 | – | > 100 | – | > 100 | – | > 100 | – | > 100 | – | > 100 | – | > 100 | – | > 100 |
| Cc1[nH]n(-c2cccc(Cl)c2)c(=O)c1/C=C1\C=Nc2ccc(Br)cc21 | 3.64 | 22.3 | 2.43 | 13.5 | 5.49 | 26.4 | 3.4 | 16 | 2.65 | 7.03 | 5.25 | > 100 | 3.08 | 22.6 | 3.12 | 10.9 | 3.04 | 9.34 | 3.58 | > 100 |
| COc1ccc(C2C(C#N)=C(N)OC3=C2COc2ccc(F)cc23)cc1OC (stereo not given) | 23.2 | 93.6 | 16.5 | 47.3 | 33.3 | > 100 | 19.4 | 57.3 | 12 | 36.1 | 18.8 | 76.5 | 15.8 | 52.6 | 49.5 | > 100 | 28.7 | > 100 | 44.4 | > 100 |
| O=C(O)c1cccc(OCCO)c1 | – | > 100 | – | > 100 | – | > 100 | – | > 100 | – | > 100 | – | > 100 | – | > 100 | – | > 100 | – | > 100 | – | > 100 |
| O=C(O)c1c(-c2nccc3ccccc23)[nH]c(-c2ccccc2)c1S(=O)(=O)O | – | > 100 | – | > 100 | – | > 100 | – | > 100 | – | > 100 | – | > 100 | – | > 100 | – | > 100 | – | > 100 | – | > 100 |
| NC(=O)C(=CNc1nc(-c2ccc(Cl)c(Cl)c2)cs1)C(N)=O | > 100 | > 100 | 25.3 | > 100 | 71.7 | > 100 | > 100 | > 100 | > 100 | > 100 | 84.7 | > 100 | 40.4 | > 100 | 48.7 | > 100 | 32.6 | > 100 | > 100 | > 100 |
| CC(=O)O[C@@H]1C[C@]2(C(C)C)O[C@@]1(C)[C@@H]1CCC(C)=C1[C@@H]2OC(=O)/C=C/c1ccccc1 | 8.33 | > 100 | 13 | > 100 | 35.1 | > 100 | 23.1 | > 100 | 16.4 | > 100 | 32.7 | > 100 | 9.63 | 57.4 | 26.9 | > 100 | > 100 | > 100 | 39 | > 100 |
| O=C1/C(=C\c2cccn2Cc2ccccc2)c2ccccc2N1c1c(Cl)cccc1Cl | 5.93 | > 100 | > 28.9 | > 100 | > 100 | > 100 | > 100 | > 100 | 7.36 | > 100 | 0.885 | > 100 | 1.3 | > 100 | > 100 | > 100 | 0.551 | > 100 | > 100 | > 100 |
| O=C(Nc1ccc(Cl)cc1F)c1cc(Br)ccc1O | 1.83 | 8.53 | 0.505 | 4.19 | 0.745 | 9.66 | 1.39 | 14.6 | 0.805 | 3.19 | 1.06 | > 20.8 | 0.43 | 2.19 | 2.34 | 7.87 | 0.642 | > 100 | 1.46 | > 36.2 |
| Cc1c(C2Nc3ccccc3C2C)[nH]c2ccccc12 (stereo not given) | 10.6 | 32.3 | 2.45 | 22.8 | 12.8 | 45.6 | 10.4 | 30.7 | 0.83 | 23.5 | 0.297 | 25.9 | 5.29 | 52.3 | 11.2 | 49.5 | 2.96 | 27.3 | 2.33 | 32.7 |
